This is an account of results in patent US8735388B2, “Heterocyclic compounds with affinity to muscarinic receptors” (Abbvie B. V. A., priority 2007, dated 2014).

In assay [1] the target is T1, Muscarine M3 (GPCR-A-MA-ACH M3) (Cavia porcellus, UniProt H0W1Z3).
T1 construct: from tissue; host or cells: guinea pig ileum
The assay can be described thus: Muscarine M3 functional assay, isolated organ (ileum), agonist and antagonist mode. Set-up: species or system Guinea Pig. The note with it: for EC50: read-out: Cell funct. Musc. M3 Agonism pEC50 (converted).

For assay [2], the target named is T2, Muscarine M3 (GPCR-A-MA-ACH M3) (Homo sapiens, UniProt P20309).
T2 construct: expressed in transfected cells; host or cells: CHO cells
T2 sequence (P20309 whole entry): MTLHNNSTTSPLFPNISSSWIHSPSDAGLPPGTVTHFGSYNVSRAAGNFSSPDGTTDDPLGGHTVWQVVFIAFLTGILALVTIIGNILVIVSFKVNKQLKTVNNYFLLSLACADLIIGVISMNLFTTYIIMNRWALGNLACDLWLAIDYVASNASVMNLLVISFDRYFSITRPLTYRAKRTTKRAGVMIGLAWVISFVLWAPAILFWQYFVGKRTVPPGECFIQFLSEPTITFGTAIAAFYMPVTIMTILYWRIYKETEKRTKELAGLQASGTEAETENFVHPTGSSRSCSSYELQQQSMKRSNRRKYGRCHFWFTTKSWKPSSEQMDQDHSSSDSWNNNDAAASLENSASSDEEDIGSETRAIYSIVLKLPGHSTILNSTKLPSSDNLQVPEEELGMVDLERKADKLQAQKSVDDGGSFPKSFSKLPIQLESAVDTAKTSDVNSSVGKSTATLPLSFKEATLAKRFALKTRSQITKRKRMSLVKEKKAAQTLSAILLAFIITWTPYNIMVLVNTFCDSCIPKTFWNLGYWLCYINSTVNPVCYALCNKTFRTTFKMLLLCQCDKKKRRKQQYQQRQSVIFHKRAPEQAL
The assay can be described thus: Muscarine M3 receptor binding. The settings on record: human M3, CHO cells; receptor binding.

Assay [3] addresses T3, Muscarine M2 (GPCR-A-MA-ACH M2) (Cavia porcellus, UniProt H0VRN8).
T3 construct: from tissue; host or cells: guinea pig left atrium (electrically paced)
T3 sequence (H0VRN8 1-466): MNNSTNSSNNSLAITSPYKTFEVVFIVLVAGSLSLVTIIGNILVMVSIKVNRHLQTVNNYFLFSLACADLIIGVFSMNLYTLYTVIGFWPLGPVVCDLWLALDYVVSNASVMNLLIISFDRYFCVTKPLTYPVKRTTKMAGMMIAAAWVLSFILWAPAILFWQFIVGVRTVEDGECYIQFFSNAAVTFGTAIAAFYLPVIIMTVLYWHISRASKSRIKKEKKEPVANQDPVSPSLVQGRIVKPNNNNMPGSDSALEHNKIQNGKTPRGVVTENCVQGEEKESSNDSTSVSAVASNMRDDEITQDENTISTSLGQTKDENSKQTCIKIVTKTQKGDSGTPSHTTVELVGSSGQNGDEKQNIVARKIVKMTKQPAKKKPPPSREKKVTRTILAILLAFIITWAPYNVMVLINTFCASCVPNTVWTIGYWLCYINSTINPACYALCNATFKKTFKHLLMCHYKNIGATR
Kind of assay: Muscarine M2 functional assay, isolated organ (left atrium, electrically paced), agonist and antagonist mode. Set-up: species or system Guinea Pig. The settings on record: for EC50: read-out: Cell funct. Musc. M2 Agonism pEC50 (converted).

Assay [4] addresses T4, Muscarine M2 (GPCR-A-MA-ACH M2) (Homo sapiens, UniProt P08172).
T4 construct: expressed in transfected cells; host or cells: CHO cells
T4 sequence (P08172 1-466): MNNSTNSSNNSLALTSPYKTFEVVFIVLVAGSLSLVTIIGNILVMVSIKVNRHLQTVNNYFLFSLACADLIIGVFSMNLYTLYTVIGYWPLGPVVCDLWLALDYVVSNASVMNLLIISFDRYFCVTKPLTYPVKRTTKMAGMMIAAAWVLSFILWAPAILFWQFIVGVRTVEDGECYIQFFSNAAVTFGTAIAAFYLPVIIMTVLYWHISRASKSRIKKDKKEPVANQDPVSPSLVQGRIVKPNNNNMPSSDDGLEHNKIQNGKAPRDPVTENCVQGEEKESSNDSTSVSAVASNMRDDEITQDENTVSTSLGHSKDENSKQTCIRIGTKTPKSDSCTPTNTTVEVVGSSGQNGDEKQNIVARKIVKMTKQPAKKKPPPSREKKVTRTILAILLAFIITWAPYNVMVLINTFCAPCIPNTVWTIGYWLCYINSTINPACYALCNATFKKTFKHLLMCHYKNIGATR
The assay can be described thus: Muscarine M2 receptor binding. The settings on record: human M2, CHO cells; receptor binding.

Where [5] appears, read: read-out: Cell funct. Musc. M2 Antagonism pA2 (converted).

Read-outs that look alike come from different tables or passages of the source. A value given as a limit tells only on which side of the number the result lay.

T1 sequence (H0W1Z3 1-590): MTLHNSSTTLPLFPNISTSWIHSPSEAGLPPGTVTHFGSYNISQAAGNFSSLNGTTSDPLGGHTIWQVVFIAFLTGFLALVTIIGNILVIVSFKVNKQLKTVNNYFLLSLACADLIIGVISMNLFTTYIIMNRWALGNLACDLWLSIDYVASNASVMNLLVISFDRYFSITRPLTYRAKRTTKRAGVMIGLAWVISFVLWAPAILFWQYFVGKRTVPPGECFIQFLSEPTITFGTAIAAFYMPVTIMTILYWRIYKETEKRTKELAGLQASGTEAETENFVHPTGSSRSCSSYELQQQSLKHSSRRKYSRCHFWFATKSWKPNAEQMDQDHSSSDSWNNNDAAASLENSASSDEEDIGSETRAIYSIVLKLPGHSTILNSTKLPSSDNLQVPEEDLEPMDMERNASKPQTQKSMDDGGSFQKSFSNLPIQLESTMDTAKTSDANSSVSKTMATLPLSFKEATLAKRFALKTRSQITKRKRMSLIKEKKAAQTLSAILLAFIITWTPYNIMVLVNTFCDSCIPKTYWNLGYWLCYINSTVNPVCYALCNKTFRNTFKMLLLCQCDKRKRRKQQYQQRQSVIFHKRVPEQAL

What is called Ki is the equilibrium dissociation constant of an inhibitor or competing ligand from its target. A low value points to higher affinity. As for `CN1CCC=C(c2n[nH]cc2SCCC=C(F)F)C1` [Compound 22J, 3-[4-(4,4-Difluoro-but-3enylsulfanyl)-1H-pyrazol-3-yl]-1,2,5,6-tetrahydro-1-methylpyridine], the Kb in assay [1] and in assay [3] (setting [5]) was above 1000 nM in each case. Moreover, the EC50 in assay [1] and in assay [3] was above 1000 nM throughout. Further, the Ki was 316 nM in assay [2] and 3.16 µM in assay [4].
In the case of `C=CCCCSc1c[nH]nc1C1=CCCN(C)C1` [Compound 22L], the Kb in assay [1] and in assay [3] (setting [5]) was above 1000 nM in each case. The EC50 in assay [1] and in assay [3] was above 1000 nM in each case. The values for the Ki in assay [2] and in assay [4] were 316 nM and 2 µM, respectively.
Turning to `CCOCCSc1c[nH]nc1C1=CCCN(C)C1` [Compound 22O, 3-[4-(2-Ethoxy-ethylsulfanyl)-1H-pyrazol-3-yl]-1,2,5,6-tetrahydro-1-methylpyridine], the Kb in assay [1] is above 1000 nM; in assay [3], 20 nM. In addition, the EC50 in assay [1] and in assay [3] was above 1000 nM each time. Moreover, the Ki was 2510 nM in assay [2] and 10 µM in assay [4].
With `C=CCCCOc1c[nH]nc1C1=CCCN(C)C1` [Compound 33F, 3-(4-Pent-4-enyloxy-1H-pyrazol-3-yl)-1,2,5,6-tetrahydro-1-methylpyridine], the Kb in assay [1] and in assay [3] (setting [5]) was above 1000 nM in each case. The EC50 in assay [1] and in assay [3] was above 1000 nM throughout. The figures for the inhibition constant Ki in assay [2] and in assay [4] were 1000 nM and 5.01 µM, respectively.
Take `CCCCCOc1c[nH]nc1C1=CCCN(C)C1` [Compound 33G, 3-(4-Pentyloxy-1H-pyrazol-3-yl)-1,2,5,6-tetrahydro-1-methylpyridine]: the Kb in assay [1] and in assay [3] (setting [5]) was above 1000 nM in each case. Moreover, the EC50 in assay [1] and in assay [3] was above 1000 nM throughout. For the same molecule, the Ki is 794 nM in assay [2] and 3.98 µM in assay [4].
